According to ChEMBL document CHEMBL3046820, “1,6-Bis[1-(2-chloro-5-thiazolylmethyl)-2-nitroiminoimidazolidin-3-yl]hexane and 1,3,5-tris[1-(6-chloronicotinyl)-2-nitroiminoimidazolidin-3-ylmethyl]benzeneSynthesis and insecticidal and neuroblocking activities in American cockroaches, Periplaneta americana” (2006):

How the values were obtained:
Type in all cases: functional
[1] = test system: Periplaneta americana; experiment: Insecticidal activity against adult male Periplaneta americana (American cockroach) dosed through injection into abdomen assessed as mortality measured 24 hr post dose
[2] = test system: Periplaneta americana; experiment: Insecticidal activity against adult male Periplaneta americana (American cockroach) dosed through injection into abdomen assessed as mortality measured 24 hr post dose pre-treated with 50 ug metabolic inhibitor PB and 50 ug NIA 1 hr before compound injection
[3] = test system: Abdominal central nerve cord; experiment: Neuroblocking activity in adult male Periplaneta americana (American cockroach) abdominal central nerve cords containing fifth and sixth ganglia assessed as neuroblocking concentration to supress frequncy below 10 counts/30 sec measured at 22 to 25 degC

Structure (SMILES) | MLD [1] [nmol] | MLD [2] [nmol] | BC [3] [µM]
O=[N+]([O-])/N=C1/N(CCCCCCN2CCN(Cc3cnc(Cl)s3)/C2=N/[N+](=O)[O-])CCN1Cc1cnc(Cl)s1 | 8.9 | 1.1 | 
O=[N+]([O-])/N=C(/NCCCCCCN/C(=N\[N+](=O)[O-])NCc1ccc(Cl)nc1)NCc1ccc(Cl)nc1 | >129 | 25.7 | 26.3
O=[N+]([O-])/N=C(/NCCCCCCN/C(=N\[N+](=O)[O-])NCc1cnc(Cl)s1)NCc1cnc(Cl)s1 | >134 | 85.1 | 14.8
O=[N+]([O-])/N=C1\N(Cc2ccc(Cl)nc2)CCN1Cc1cccc(CN2CCN(Cc3ccc(Cl)nc3)/C2=N/[N+](=O)[O-])c1CN1CCN(Cc2ccc(Cl)nc2)/C1=N\[N+](=O)[O-] | 34 | 3.4 | 100
O=[N+]([O-])/N=C1\N(Cc2ccc(Cl)nc2)CCN1Cc1cccc(CN2CCN(Cc3ccc(Cl)nc3)/C2=N/[N+](=O)[O-])c1 | 20 | 1 | 
O=[N+]([O-])/N=C1/N(CCCCCCN2CCN(Cc3ccc(Cl)nc3)/C2=N/[N+](=O)[O-])CCN1Cc1ccc(Cl)nc1 [Hexamethylene 1,6-bis-imadacloprid] | 2.2 | 0.29 | 3.7
O=[N+]([O-])/N=C1\NCCN1Cc1ccc(Cl)nc1 [IMIDACLOPRID] | 1.1 | 0.071 | 2.3
